ChEMBL document CHEMBL4406865, “Design, synthesis and biological evaluation of novel semicarbazone-selenochroman-4-ones hybrids as potent antifungal agents” (2019)
In brackets after ≈: the same amount, converted by molar mass.

Key:
Format in all cases: functional
[1] = tested on: Aspergillus fumigatus; assay: Antifungal activity against Aspergillus fumigatus CGMCC 3.7795 measured at 72 hrs by CLSI protocol based microbroth dilution method; settings: CGMCC 3.7795, 72 h
[2] = tested on: Candida albicans; assay: Antifungal activity against Candida albicans SC5314 incubated for 24 hrs by CLSI protocol based microbroth dilution method; settings: SC5314, 24 h
[3] = tested on: Candida albicans; assay: Antifungal activity against Candida albicans CPCC400616 measured at 24 hrs by CLSI protocol based microbroth dilution method; settings: CPCC400616, 24 h
[4] = tested on: [Candida] zeylanoides; assay: Antifungal activity against Candida zeylanoides CGMCC2.3739 measured at 24 hrs by CLSI protocol based microbroth dilution method; settings: Dujonia zeylanoides, CGMCC2.3739, 24 h
[5] = tested on: Cryptococcus neoformans; assay: Antifungal activity against Cryptococcus neoformans CGMCC2.3161 measured at 72 hrs by CLSI protocol based microbroth dilution method; settings: CGMCC2.3161, 72 h
[6] = tested on: Candida albicans; assay: Antifungal activity against fluconazole-resistant Candida albicans isolate 17 incubated for 24 hrs by CLSI protocol based microbroth dilution method; settings: isolate 17, 24 h
[7] = tested on: Candida albicans; assay: Antifungal activity against fluconazole-resistant Candida albicans isolate 100 incubated for 24 hrs by CLSI protocol based microbroth dilution method; settings: isolate 100, 24 h
[8] = tested on: Candida albicans; assay: Antifungal activity against fluconazole-resistant Candida albicans isolate 103 incubated for 24 hrs by CLSI protocol based microbroth dilution method; settings: isolate 103, 24 h
[9] = tested on: Candida albicans; assay: Antifungal activity against fluconazole-resistant Candida albicans CaR incubated for 24 hrs by CLSI protocol based microbroth dilution method

| Structure (SMILES) | MIC90 [1] [µg/mL] | MIC90 [2] [µg/mL] | MIC90 [3] [µg/mL] | MIC90 [4] [µg/mL] | MIC90 [5] [µg/mL] | MIC90 [6] [µg/mL] | MIC90 [7] [µg/mL] | MIC90 [8] [µg/mL] | MIC90 [9] [µg/mL] |
| --- | --- | --- | --- | --- | --- | --- | --- | --- | --- |
| NNC(=S)NN | > 128 | 64 (≈ 603 µM) | 32 (≈ 301 µM) | 64 (≈ 603 µM) | 64 (≈ 603 µM) | – | – | – | – |
| Cc1ccc2c(c1)/C(=N/NC(=S)Nc1ccccc1)CC[Se]2 | > 128 | 64 (≈ 171 µM) | 64 (≈ 171 µM) | > 128 | 16 (≈ 42.7 µM) | – | – | – | – |
| Cc1ccc2c(c1)/C(=N/NC(=S)NN)CC[Se]2 | > 128 | 8 (≈ 25.5 µM) | 8 (≈ 25.5 µM) | > 128 | 4 (≈ 12.8 µM) | – | – | – | – |
| CCc1ccccc1NC(=O)N/N=C1\CC[Se]c2ccc(C)cc21 | > 128 | 64 (≈ 166 µM) | 64 (≈ 166 µM) | 16 (≈ 41.4 µM) | 4 (≈ 10.4 µM) | – | – | – | – |
| COc1cccc(NC(=S)N/N=C2\CC[Se]c3ccc(C)cc32)c1 | > 128 | 64 (≈ 158 µM) | 64 (≈ 158 µM) | > 128 | 32 (≈ 79.1 µM) | – | – | – | – |
| Cc1ccc2c(c1)/C(=N/NC(=O)Nc1cccc(Br)c1)CC[Se]2 | > 128 | > 128 | > 128 | > 128 | > 128 | – | – | – | – |
| O=C1CC[Se]c2ccc(F)cc21 | > 128 | 4 (≈ 17.5 µM) | 16 (≈ 69.8 µM) | > 128 | > 128 | – | – | – | – |
| COc1ccc(OC)c(NC(=S)N/N=C2\CC[Se]c3ccc(F)cc32)c1 | 64 (≈ 146 µM) | 2 (≈ 4.56 µM) | 8 (≈ 18.2 µM) | 4 (≈ 9.12 µM) | 4 (≈ 9.12 µM) | 2 (≈ 4.56 µM) | 2 (≈ 4.56 µM) | 4 (≈ 9.12 µM) | 4 (≈ 9.12 µM) |
| COc1ccc(OC)c(NC(=S)N/N=C2\CC[Se]c3ccccc32)c1 | > 128 | 4 (≈ 9.51 µM) | 8 (≈ 19 µM) | 32 (≈ 76.1 µM) | 2 (≈ 4.76 µM) | – | – | – | – |
| Cc1ccc(NC(=S)N/N=C2\CC[Se]c3ccc(F)cc32)cc1 | > 128 | 32 (≈ 81.6 µM) | 8 (≈ 20.4 µM) | 16 (≈ 40.8 µM) | 2 (≈ 5.1 µM) | – | – | – | – |
| CCc1ccccc1NC(=O)NN | > 128 | 32 (≈ 179 µM) | 64 (≈ 357 µM) | 64 (≈ 357 µM) | 32 (≈ 179 µM) | – | – | – | – |
| Cc1ccc(C)c(NC(=O)N/N=C2\CC[Se]c3ccc(F)cc32)c1 | > 128 | 4 (≈ 10.2 µM) | 8 (≈ 20.5 µM) | > 128 | > 128 | – | – | – | – |
| Cc1ccc(C)c(NC(=O)N/N=C2\CC[Se]c3ccc(C)cc32)c1 | > 128 | 64 (≈ 166 µM) | 64 (≈ 166 µM) | > 128 | 64 (≈ 166 µM) | – | – | – | – |
| O=C(N/N=C1\CC[Se]c2ccc(F)cc21)Nc1cc(Cl)cc(Cl)c1 | > 128 | > 128 | > 128 | > 128 | > 128 | – | – | – | – |
| O=C1CC[Se]c2ccccc21 | > 128 | 4 (≈ 18.9 µM) | 64 (≈ 303 µM) | > 128 | 8 (≈ 37.9 µM) | – | – | – | – |
| CCOc1ccc(NC(=O)N/N=C2\CC[Se]c3ccc(C)cc32)cc1 | > 128 | 8 (≈ 19.9 µM) | 64 (≈ 159 µM) | > 128 | 32 (≈ 79.5 µM) | – | – | – | – |
| Cc1ccc(C)c(NC(=S)N/N=C2\CC[Se]c3ccc(F)cc32)c1 | > 128 | 32 (≈ 78.7 µM) | 8 (≈ 19.7 µM) | > 128 | 16 (≈ 39.4 µM) | – | – | – | – |
| O=C(N/N=C1\CC[Se]c2ccc(F)cc21)Nc1ccccc1Cl | > 128 | 2 (≈ 5.04 µM) | 8 (≈ 20.2 µM) | 8 (≈ 20.2 µM) | 16 (≈ 40.3 µM) | – | – | – | – |
| NNC(=S)Nc1ccccc1 | > 128 | > 128 | 64 (≈ 383 µM) | > 128 | 64 (≈ 383 µM) | – | – | – | – |
